Converted amounts (≈) assume the structure as drawn.
Experiments:
[1] = Metabolic Stability assay, rat liver microsomes; format: in vitro ADME; settings: read-out: LM T1/2 (min) (rat)
Summary of the method: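 Test article at 1 μM starting concentration incubated with human or rat liver microsomes at 37 °C, with the reaction started by NADPH regeneration components. Aliquots were quenched in cold acetonitrile/MeOH/H2O at 0, 7, 15, 30 and 60 min and analysed by HPLC/MS/MS.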

hTRPV3 [2] = biological target: T1, hTRPV3 (Homo sapiens (Human), UniProt Q8NET8); experiment: hTRPV3 HAMA IC50 assay (Hamamatsu FDSS6000 calcium flux, TRex-293 cells)
Method: IC50s were calculated using CBIS from ChemInnovation (San Diego).

hTRPV3 [3] = biological target: T1, hTRPV3; experiment: Whole-cell patch clamp, hTRPV3 Phase 1 / Phase 2 currents; format: cell-based; settings: Phase 1 current
Summary of the method: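 Whole-cell recordings on induced TRPV3 cells replated on coverslips, held at −40 mV with 400 ms ramps from −120 to +100 mV every 5 s; currents read at −80 and +80 mV. Ringer's external solution; current activated by heating to ≥28 °C or 20 μM 2-APB.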

[4] = Aqueous solubility assay in Normal Ringer Solution; settings: Normal Ringer Solution; for solubility at 40 min: saline or isotonic, kinetic from dmso stock; for Solubility Ringer (nM): room temperature
Method: Following vortex and incubation for a sufficient time (e.g. 40 minutes at room temperature), solutions were filtered, quenched with acetonitrile, and analyzed by Liquid Chromotography. Solubility Limits were determined by comparison to a standard curve.

hTRPV3 [5] = biological target: T1, hTRPV3; experiment: FLIPR Assay (calcium flux, HEK293 cells stably expressing TRPV3); format: cell-based
Method: In Tables 3 and 4, Phase 1 refers to Phase 1 current for human (h) TRPV3 or rat (r) TRPV3, and Phase 2 refers to Phase 2 current for human (h) TRPV3 or rat (r) TRPV3. The hTRPV3 and rTRPV3 assays were performed as described herein. hERG refers to the inhibition the human ERG (hERG) channel. NaV1.5, refers to the pore forming aL-subunit of the voltage-dependent cardiac Na(+) channel and is an integral membrane protein involved in the initiation and conduction of action potentials. hTRPV3 HAMA IC50 refers to the IC50 of TRPV3 cells stably expressed in TRex-293 cells. Solubility Ringer refers to the compounds' solubility in Ringer's solution. LM T1/2 refers to liver microsome half-lives in either rat or human liver microsomes. FLIPR IC50 refers to the IC50 of the test compounds against recombinant hTRPV3 cells.
The cells were treated with IBSS and 20 mM HEPES adjusted to pH 7.4 in the presence of the fluorescent calcium indicator e.g. Fluo-4AM (5 uM) and the plates were incubated at 37° C. and […] for approximately 1 hour and cooled to room temperature. […] Relative Fluorescence Units (RFU) were measured for each response for signal maximum minus minimum during approximately 90 seconds after addition.

[6] = inward, whole-cell patch clamp, read-out: hTRPV3 Patch P1 Inwd
[7] = read-out: hTRPV3 (nM) (Phase 1)
[8] = hTRPV3 HAMA IC50 (nM) (30 min), 30 min
[9] = hTRPV3 HAMA IC50 (nM) (5 min), 5 min
[10] = read-out: hTRPV3 HAMA IC50, 2-APB stimulated calcium flux

T1 sequence (Q8NET8 whole entry): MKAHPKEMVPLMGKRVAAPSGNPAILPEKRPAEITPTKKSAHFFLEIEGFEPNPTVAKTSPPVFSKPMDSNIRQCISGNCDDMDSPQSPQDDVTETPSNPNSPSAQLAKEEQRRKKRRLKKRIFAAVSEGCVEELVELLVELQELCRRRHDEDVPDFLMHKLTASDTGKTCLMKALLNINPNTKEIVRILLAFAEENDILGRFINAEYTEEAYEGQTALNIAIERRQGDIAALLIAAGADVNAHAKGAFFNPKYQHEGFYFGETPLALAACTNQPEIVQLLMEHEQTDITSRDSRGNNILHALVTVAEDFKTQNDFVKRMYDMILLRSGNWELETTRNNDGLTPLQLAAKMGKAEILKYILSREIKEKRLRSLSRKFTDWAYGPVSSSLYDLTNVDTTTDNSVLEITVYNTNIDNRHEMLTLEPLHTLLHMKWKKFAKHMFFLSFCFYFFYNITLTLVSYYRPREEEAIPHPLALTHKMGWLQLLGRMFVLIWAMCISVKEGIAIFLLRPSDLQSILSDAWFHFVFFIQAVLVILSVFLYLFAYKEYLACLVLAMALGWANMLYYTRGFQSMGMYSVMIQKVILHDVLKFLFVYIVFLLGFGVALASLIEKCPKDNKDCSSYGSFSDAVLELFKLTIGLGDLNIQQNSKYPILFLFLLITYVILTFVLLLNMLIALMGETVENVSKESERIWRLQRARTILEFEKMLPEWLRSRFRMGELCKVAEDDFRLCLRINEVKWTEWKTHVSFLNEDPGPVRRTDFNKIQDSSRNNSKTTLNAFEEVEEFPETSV

OCc1ccc(Oc2ccccc2Cl)cc1N1CC[C@H](Oc2ncccc2Cl)C1 [Compound 1-232, (S)-(4-(2-chlorophenoxy)-2-(3-(3-chloropyridin-2-yloxy)pyrrolidin-1-yl)phenyl)methanol]
half-life at 1 μM [1]: 5.87 min
hTRPV3 HAMA IC50 (nM) (5 min) (hTRPV3 [2]; 5 min): no fit (5 min) no fit (30 min)
hTRPV3 HAMA IC50 (nM) (30 min) (hTRPV3 [2]; 30 min): no fit (5 min) no fit (30 min)
IC50 (hTRPV3 [3]; [6]): 10 to 100 nM
IC50 (hTRPV3 [3]; [7]): ~72.5 nM
solubility at 40 min [4]: 0.25 µM (≈ 0.108 µg/mL)

CCc1ccccc1Oc1ccc(CO)c(N2CC[C@H](Oc3ncccc3Cl)C2)c1 [Compound 1-233, (S)-(2-(3-(3-chloropyridin-2-yloxy)pyrrolidin-1-yl)-4-(2-ethylphenoxy)phenyl)methanol]
half-life at 1 μM [1]: 10.4 min
hTRPV3 HAMA IC50 (nM) (5 min) (hTRPV3 [2]; 5 min): no fit
IC50 (hTRPV3 [2]; [8]): > 20000 nM
IC50 (hTRPV3 [3]; [6]): 10 to 100 nM
IC50 (hTRPV3 [3]; [7]): ~21.6 nM
Solubility Ringer (nM) [4]: BLQ

Cc1ccccc1Oc1ccc(N2CC[C@H](Oc3ncccc3Cl)C2)c(CCO)c1 [Compound 1-235, (S)-2-(2-(3-(3-chloropyridin-2-yloxy)pyrrolidin-1-yl)-5-(o-tolyloxy)phenyl)ethanol]
half-life at 1 μM [1]: 21.9 min
IC50 (hTRPV3 [2]; [9]): > 20000 nM
IC50 (hTRPV3 [2]; [8]): 6600 nM
IC50 (hTRPV3 [3]; [6]): 10 to 100 nM
IC50 (hTRPV3 [3]; [7]): 19.9 nM
Solubility Ringer (nM) [4]: BLQ

COc1ccccc1Oc1ccc(N2CC[C@H](Oc3ncccc3Cl)C2)c(CCO)c1 [Compound 1-237, (S)-2-(2-(3-(3-chloropyridin-2-yloxy)pyrrolidin-1-yl)-5-(2-methoxyphenoxy)phenyl)ethanol]
half-life at 1 μM [1]: 8.33 min
IC50 (hTRPV3 [2]; [9]): > 20000 nM
IC50 (hTRPV3 [2]; [8]): 19800 nM
IC50 (hTRPV3 [3]; [6]): 100 to 1000 nM
IC50 (hTRPV3 [3]; [7]): 251 nM
solubility at 40 min [4]: ~1.5 µM (≈ 0.661 µg/mL)

Cc1ccccc1Oc1ccc(CO)c(N2CC[C@H](Oc3ncccc3Cl)C2)c1 [Compound 1-241, (S)-(2-(3-(3-chloropyridin-2-yloxy)pyrrolidin-1-yl)-4-(o-tolyloxy)phenyl)methanol]
half-life at 1 μM [1]: 6.19 min
hTRPV3 HAMA IC50 (nM) (5 min) (hTRPV3 [2]; 5 min): no fit (5 min) no fit (30 min)
hTRPV3 HAMA IC50 (nM) (30 min) (hTRPV3 [2]; 30 min): no fit (5 min) no fit (30 min)
IC50 (hTRPV3 [3]; [6]): 10 to 100 nM
IC50 (hTRPV3 [3]; [7]): 18.6 nM
solubility at 40 min [4]: ~0.37 µM (≈ 0.152 µg/mL)

COc1cncc(C(=O)N2CCC(c3ccc(-c4ccccc4C4CC4)cc3CO)C2)n1 (centres unmarked) [Compound 2-125]
IC50 (hTRPV3 [5]; read-out: FLIPR IC50): 1.79 µM
IC50 (hTRPV3 [2]; [10]): 99.6 nM

COc1ncc(C(=O)N2CCC(c3ccc(-c4ccccc4C4CC4)cc3CO)C2)nc1C (centres unmarked) [Compound 2-126]
IC50 (hTRPV3 [5]; read-out: FLIPR IC50): 1.18 µM
IC50 (hTRPV3 [2]; [10]): 84 nM

O=C(c1ncon1)N1CCC(c2ccc(-c3ccccc3C3CC3)cc2CO)C1 (centres unmarked) [Compound 2-127]
IC50 (hTRPV3 [5]; read-out: FLIPR IC50): 1.9 µM
IC50 (hTRPV3 [2]; [10]): 130 nM

Cc1nc(C(=O)N2CCC(c3ccc(-c4ccccc4C4CC4)cc3CO)C2)no1 (centres unmarked) [Compound 2-128]
IC50 (hTRPV3 [5]; read-out: FLIPR IC50): 1.85 µM
IC50 (hTRPV3 [2]; [10]): 479 nM

Cc1nnc(C(=O)N2CCC(c3ccc(-c4ccccc4C4CC4)cc3CO)C2)o1 (centres unmarked) [Compound 2-129]
IC50 (hTRPV3 [5]; read-out: FLIPR IC50): > 10 µM

O=C(c1cnc(O)cn1)N1CCC(c2ccc(-c3ccccc3C3CC3)cc2CO)C1 (centres unmarked) [Compound 2-130]
IC50 (hTRPV3 [5]; FLIPR IC50 (uM)): 4.8 µM

O=C(c1cncc(O)n1)N1CCC(c2ccc(-c3ccccc3C3CC3)cc2CO)C1 (centres unmarked) [Compound 2-131]
IC50 (hTRPV3 [5]; FLIPR IC50 (uM)): > 10 µM

O=C(c1cc(O)ccn1)N1CCC(c2ccc(-c3ccccc3C3CC3)cc2CO)C1 (centres unmarked) [Compound 2-132]
IC50 (hTRPV3 [5]; read-out: FLIPR IC50): > 10 µM

O=C(c1ccc(O)nn1)N1CCC(c2ccc(-c3ccccc3C3CC3)cc2CO)C1 (centres unmarked) [Compound 2-133]
IC50 (hTRPV3 [5]; read-out: FLIPR IC50): > 10 µM

O=C(c1ccc(CO)cn1)N1CCC(c2ccc(-c3ccccc3C3CC3)cc2CO)C1 (centres unmarked) [Compound 2-134]
IC50 (hTRPV3 [5]; read-out: FLIPR IC50): 9.5 µM

O=C(c1ccc(O)cn1)N1CCC(c2ccc(-c3ccccc3C3CC3)cc2CO)C1 (centres unmarked) [Compound 2-135]
IC50 (hTRPV3 [5]; read-out: FLIPR IC50): 3.09 µM

Cc1nc(C(=O)N2CCC(c3ccc(-c4ccccc4C4CC4)cc3CO)C2)cnc1O (centres unmarked) [Compound 2-136]
IC50 (hTRPV3 [5]; read-out: FLIPR IC50): 5.17 µM

O=C(c1cnc(CO)cn1)N1CCC(c2ccc(-c3ccccc3C3CC3)cc2CO)C1 (centres unmarked) [Compound 2-137]
IC50 (hTRPV3 [5]; read-out: FLIPR IC50): > 10 µM

O=C(c1ccc(CO)nn1)N1CCC(c2ccc(-c3ccccc3C3CC3)cc2CO)C1 (centres unmarked) [Compound 2-138]
IC50 (hTRPV3 [5]; read-out: FLIPR IC50): > 10 µM

O=C(c1ncccc1O)N1CCC(c2ccc(-c3ccccc3C3CC3)cc2CO)C1 (centres unmarked) [Compound 2-139]
IC50 (hTRPV3 [5]; read-out: FLIPR IC50): 7.68 µM

Cc1ccc(C(=O)N2CCC(c3ccc(-c4ccccc4C4CC4)cc3CO)C2)nc1O (centres unmarked) [Compound 2-140]
IC50 (hTRPV3 [5]; read-out: FLIPR IC50): 5.57 µM
